From patent US4666908A, “5-Substituted pyrazolo[4,3-d]pyrimidine-7-ones and methods of use” (Warner-Lambert Company, priority 1985, dated 1987) come the findings set out here.

One may read the IC50 as the concentration that gives 50% inhibition.

The target of one experiment is T1, adenosine A1 receptor (Rattus norvegicus, UniProt P25099).
T1 construct: Whole brain minus cerebellum and brainstem from male Long Evans rats; from tissue; host or cells: whole brain minus cerebellum and brainstem, male Long Evans rats (membranes)
T1 sequence (P25099 1-326): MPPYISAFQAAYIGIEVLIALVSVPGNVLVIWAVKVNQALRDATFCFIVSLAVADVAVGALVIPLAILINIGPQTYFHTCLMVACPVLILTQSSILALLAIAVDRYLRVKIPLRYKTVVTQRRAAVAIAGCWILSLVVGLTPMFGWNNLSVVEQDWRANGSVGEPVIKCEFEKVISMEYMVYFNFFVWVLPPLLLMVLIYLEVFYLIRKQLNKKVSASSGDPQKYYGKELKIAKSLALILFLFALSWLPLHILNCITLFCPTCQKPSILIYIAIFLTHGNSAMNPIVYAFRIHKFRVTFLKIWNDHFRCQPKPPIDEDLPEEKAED
Put plainly: Adenosine Receptor Binding - A1 Receptor Affinity (RBA1), [3H]-N6-cyclohexyladenosine displacement. To be noted: [3H]-CHA 1.0 nM, rat brain membranes, 25° C., one hour; read-out: RBA-1, IC50 for adenosine A1 receptor affinity. As for the experimental part: Whole brain minus cerebellum and brainstem from male Long Evans rats (150-200 g) was homogenized in 30 volumes of ice-cold 0.05M Tris-HCl buffer pH 7.7 using a Brinkman Polytron PT-10, (setting number 6 for 20 seconds) and centrifuged for ten minutes at 20,000×g (Sorvall RC-2), 4° C. The supernatant was discarded, and the pellet was resuspended and centrifuged as before. […] The homogenate was again centrifuged, and the final pellet was resuspended in ice-cold 0.05 M Tris-HCl buffer pH 7.7 to a concentration of 20 mg/ml original wet tissue weight and used immediately. […] Incubation volume was 2 ml. […] The filters were rinsed three times with 5 ml of ice cold 0.05 M Tris-HCl buffer pH 7.7. The radio-labeled ligand retained on the filter was measured by liquid scintillation spectrophotometry after shaking the filters for one hour or longer on a mechanical shaker in 10 ml of Beckman Ready-Solv HP scintillation cocktail. […] The Hill coefficient was calculated by linear regression of the line obtained by plotting the log of the bound radioligand vs the log of the [formula] The maximal number of binding sites (Bmax) was calculated from the Scatchard plot.

Another experiment relates to Type 1 Phosphodiesterase. Put plainly: Phosphodiesterase (PDE) Inhibition, Type 1 Phosphodiesterase. The following applies: Type 1 PDE, at 10^-5 M; for % Inhibition of hydrolysis of 3H-cAMP: substrate 3H-cAMP 1.0 μM; for % Inhibition of hydrolysis of 3H-cGMP: substrate 3H-cGMP 1.0 μM. It is filed as biochemical, bovine (coronary arteries). From the text: (§1) The method of Thompson, et al (Thompson, W. J., Terasaki, W. L., Epstein, P. M., Strada, S. J., Adv. Cyclic Nucleotide Res., 10:69-92, 1979), with minor modifications, was used to isolate phosphodiesterases from vascular smooth muscle. Bovine coronary arteries (right, anterior descending, and left circumflex arteries) from hearts obtained from a local slaughterhouse were used for these studies. Arteries from two hearts were used for each isolation. Hearts were kept on ice and the arteries were dissected within two hours after the animals were sacrificed. After removing all fat and connective tissue, the arteries were everted, cut into cubes with a single edge razor blade and homogenized with a Brinkman Polytron three times at a rheostat setting of 10.0 in four volumes of the PDE isolation buffer (10 mM Tris-HCl/pH 7.5, 2 mM MgCl2, and 1 mM dithiothreitol). The resulting homogenate was sonicated (30 sec/ml homogenate) and then centrifuged at 30,000 xg for 20 minutes. This and all subsequent procedures were performed at 4° C. The resulting supernatant was filtered through four layers of gauze, and applied to a DEAE-cellulose column (30×1.5 cm), prepared as described by Cheung (Cheung, W. Y., Biochim. Biophys. Acta, 191:303-315, 1969), and equilibrated with freshly prepared 70 mM sodium acetate/5 mM 2-mercaptoethanol (pH 6.5). The column was then washed with 2-3 bed volumes of sodium acetate/2-mercaptoethanol, after which the phosphodiesterases were eluted from the column using a continuous 70-1,000 mM sodium acetate gradient (pH 6.5, containing 5 mM 2-mercaptoethanol; total volume 400 ml). The flow rate was approximately equal to 25 ml/hr. Eight ml fractions were collected and assayed for cyclic AMP- and cyclic GMP-phosphodiesterase activity in the presence and absence of 0.1 units of calmodulin and 10 mM CaCl2. Appropriate fractions were pooled and dialyzed against 70 mM sodium acetate/5 mM 2-mercaptoethanol for 20 hours.
(§2) Following complete separation, the combined phosphodiesterase fractions were concentrated to 14% of the original volume using an Amicon ultrafiltration cell fitted with a UM-10 membrane, according to the method of Wells, et al (Wells, J. N., Baird, C. E., Wu, Y. J., Hardman, J. G., Biochim. Biophys. Acta, 384:430-442, 1975). Following concentration, the protein was then diluted to 65% with ethylene glycol monoethyl ether, and stored at -20° C.
(§3) Phosphodiesterase activity was measured as described previously (Weishaar, P. E., Quade, M., Boyd, D., Schenden, J., Mark, S. S., Kaplan, H. R., Drug Devel. Res., 3:517-534, 1983), in a reaction medium containing 40 mM Tris-HCl (pH 8.0), 5 mM MgCl and 4 mM 2-mercaptoethanol. Unless otherwise noted, the concentration of substrate (^3 H-cyclic AMP or ^3 H-cyclic GMP) was 1.0 μM. All agents examined were dissolved in dimethyl sulfoxide (DMSO). Final concentration of the reaction medium was either 2.5% (cardiac and platelet studies) or 1.25% (smooth muscle studies). This concentration of DMSO produced an approximately 10% inhibition of enzyme activity.

Another experiment deals with Type 3 Phosphodiesterase. As to the kind of experiment: Phosphodiesterase (PDE) Inhibition, Type 3 Phosphodiesterase. The following applies: Type 3 PDE, at 10^-5 M, substrate 3H-cAMP 1.0 μM. It counts as biochemical, bovine (coronary arteries).
Source text: as §1, §2, §3

For experiment [1], the system named is pentobarbital-anesthetized dog. As to the kind of experiment: In Vivo Myocardial Inotropic Activity in Anesthetized Dog (CVAD). The arrangement: species or system dog (adult mongrel). The following applies: for change in vivo at 0.1 mg/kg / change in vivo at 0.31 mg/kg / change in vivo at 1 mg/kg / change in vivo at 3.1 mg/kg / change in vivo at 10 mg/kg: Canis lupus familiaris, iv; for change in vivo at 0.1 mg/kg: 0.10 mg/kg IV; for change in vivo at 0.31 mg/kg: 0.31 mg/kg IV; for change in vivo at 1 mg/kg: 1.00 mg/kg IV; for change in vivo at 3.1 mg/kg: 3.10 mg/kg IV; for change in vivo at 10 mg/kg: 10.00 mg/kg IV. As to the method:
This test procedure is described in the following paragraphs.
This screen consists of determining the effects of increasing intravenous doses of compound on mycardial contractility (dP/dt max of left ventricular blood pressure), heart rate, and aortic blood pressure of the pentobarbital-anesthetized dog.
Adult mongrel dogs of either sex are anesthetized with pentobarbital, 35 mg/kg, IV, and are subsequently maintained under anesthesia with a continuous infusion of pentobarbital, 3.5 mg/kg/hour. The trachea is intubated but the animals are permitted to breathe spontaneously. A cannula is inserted into the femoral vein for administrating test agents. A Millar catheter tip pressure transducer or a fluid filled catheter is inserted into the ascending aorta via the femoral artery for measuring aortic blood pressure. A Millar catheter tip pressure transducer is passed into the left ventricle via the left carotid artery for measuring left ventricular blood pressure. Needle electrodes are placed subcutaneously for recording a lead II electrocardiogram (ECG).
Left ventricular and aortic blood pressures are recorded on a strip chart recorder. Heart rate, using a biotachometer triggered from the R wave of the ECG, and the first derivative of left ventricular blood pressure (dP/dt), obtained with a differentiator amplifier coupled to the corresponding pressure amplifier, are also recorded. A period of at least 30 minutes is utilized to obtain control data prior to administration of test compound.
Ethanol or dimethylacetamide can be used as solvents if adequate dilutions can be made. Appropriate vehicle controls are administered when needed.
Each dose of the test compound is administered in a volume of […] over a period of one minute.

Setting [2] is: read-out: Percent Change Heart Rate.
Where [3] appears, read: read-out: Percent Change Myocardial Contractility.
[4] abbreviates: intravenously at about 0.01 to 0.31 mg/kg.

Like-named read-outs stand apart in the source and are kept apart here.

For `Cc1nn(C)c2c(=O)[nH]c(Cc3ccccc3)nc12` [Example 1, 1,3-Dimethyl-5-benzylpyrazolo[4,3-d]pyrimidine-7-one], the IC50 at adenosine A1 receptor is 13.1 µM. Moreover, in the experiment on Type 1 Phosphodiesterase, the “% Inhibition of hydrolysis of 3H-cAMP” value turned out to be 80% and the “% Inhibition of hydrolysis of 3H-cGMP” value was found to be 71%. Moreover, the “% Inhibition of hydrolysis of 3H-cAMP” value with Type 3 Phosphodiesterase is 23%. For the same compound, in experiment [1] (setting [2]), the change in vivo at 0.1 mg/kg worked out at 2%, the change in vivo at 0.31 mg/kg was 3%, the change in vivo at 1 mg/kg worked out at 6% and the change in vivo at 3.1 mg/kg amounted to 14%. In experiment [1] (setting [2]), the change in vivo at 10 mg/kg came to 38%. Besides, in experiment [1] (setting [3]), the change in vivo at 0.1 mg/kg amounted to 8%, the change in vivo at 0.31 mg/kg amounted to 12%, the change in vivo at 1 mg/kg amounted to 23% and the change in vivo at 3.1 mg/kg is 42%. For the same compound, the change in vivo at 10 mg/kg in experiment [1] (setting [3]) stood at 95%. In experiment [1] (setting [4]), the “blood pressure (in words)” value is “a moderate reduction in blood pressure”, the “cardiac contractility (in words)” value is “dose related significant increases in cardiac contractility” and the “heart rate (in words)” value is listed as “only low or minimal changes in heart rate”.

`Cc1nn(C)c2c(=O)[nH]c(-c3ccncc3)nc12` [Example 2, 1,3-Dimethyl-5-(4-pyridyl)-pyrazolo[4,3-d]pyrimidine-7-one]: the IC50 on adenosine A1 receptor was 0.953 µM. For the same compound, in the experiment on Type 1 Phosphodiesterase, the “% Inhibition of hydrolysis of 3H-cAMP” value came out at 5% and the “% Inhibition of hydrolysis of 3H-cGMP” value stood at 13%. The “% Inhibition of hydrolysis of 3H-cAMP” value in the experiment with Type 3 Phosphodiesterase is on record as 20%. Also, the change in vivo at 0.1 mg/kg in experiment [1] (read-out: Percent Change Blood Pressure) was 0%. Moreover, in experiment [1] (setting [2]), the change in vivo at 0.1 mg/kg was found to be 1%, the change in vivo at 0.31 mg/kg stood at 1%, the change in vivo at 1 mg/kg came to 28% and the change in vivo at 3.1 mg/kg is 49%. For the same compound, in experiment [1] (setting [3]), the change in vivo at 0.1 mg/kg is 4%, the change in vivo at 0.31 mg/kg was determined as 7%, the change in vivo at 1 mg/kg worked out at 53% and the change in vivo at 3.1 mg/kg came out at 121%.

Consider `COc1ccc(-c2nc3c(C)nn(C)c3c(=O)[nH]2)c(OC)c1` [Example 17, 1,3-Dimethyl-5-(2,4-dimethoxyphenyl)pyrazolo[4,3-d]-pyrimidine-7-one], for which the IC50 at adenosine A1 receptor worked out at 5.43 µM. Besides, in the experiment with Type 1 Phosphodiesterase, the “% Inhibition of hydrolysis of 3H-cAMP” value was determined as 15% and the “% Inhibition of hydrolysis of 3H-cGMP” value was 26%. In addition, the “% Inhibition of hydrolysis of 3H-cAMP” value in the experiment with Type 3 Phosphodiesterase turned out to be 17%.

In the case of `Cc1nn(C)c2c(=O)[nH]c(-c3ccc(Cl)cc3[N+](=O)[O-])nc12` [Example 18, 1,3-Dimethyl-5-(2-nitro-4-chlorophenyl)pyrazolo-[4,3-d]pyrimidine-7-one], on adenosine A1 receptor, the IC50 is 8.5 µM. The “% Inhibition of hydrolysis of 3H-cAMP” value in the experiment with Type 1 Phosphodiesterase and in the experiment with Type 3 Phosphodiesterase was 7% in each case. The “% Inhibition of hydrolysis of 3H-cGMP” value in the experiment with Type 1 Phosphodiesterase turned out to be 5%.

Regarding `Cc1nn(C)c2c(=O)[nH]c(-c3ccc(Cl)cc3N)nc12` [Example 19, 1,3-Dimethyl-5-(2-amino-4-chlorophenyl)pyrazolo[4,3-d]pyrimidine-7-one], at adenosine A1 receptor, the half-maximal inhibitory concentration (IC50) is 0.314 µM. In addition, in the experiment on Type 1 Phosphodiesterase, the “% Inhibition of hydrolysis of 3H-cAMP” value is reported as 16% and the “% Inhibition of hydrolysis of 3H-cGMP” value came to 12%. Further, the “% Inhibition of hydrolysis of 3H-cAMP” value in the experiment with Type 3 Phosphodiesterase was found to be 5%.
